Experimental data from PubChem BioAssay (NCI).
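Values below derive from 48-hour exposures of cells grown in 96-well plates, with endpoints linearly interpolated between the two concentrations bracketing the appropriate inhibition level. GI50: concentration for 50% inhibition of growth. The concentration for full growth arrest is given as TGI.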

Tests used:
Test in all cases: NCI-60 cell line screen, 48 h
HL-60(TB) leukemia = system: HL-60(TB) leukemia
COLO 205 colon = system: COLO 205 colon
SK-OV-3 ovarian = system: SK-OV-3 ovarian
KM12 colon = system: KM12 colon
HOP-92 NSCLC = system: HOP-92 NSCLC
HCT-116 colon = system: HCT-116 colon
RPMI-8226 leukemia = system: RPMI-8226 leukemia
IGROV1 ovarian = system: IGROV1 ovarian
HCT-15 colon = system: HCT-15 colon
HS 578T breast = system: HS 578T breast

Row | SMILES | TGI (HL-60(TB) leukemia) [µM] | TGI (COLO 205 colon) [µM] | TGI (SK-OV-3 ovarian) [µM] | TGI (KM12 colon) [µM] | TGI (HOP-92 NSCLC) [µM] | TGI (HCT-116 colon) [µM] | TGI (RPMI-8226 leukemia) [µM] | TGI (IGROV1 ovarian) [µM] | TGI (HCT-15 colon) [µM] | GI50 (COLO 205 colon) [µM] | GI50 (HCT-15 colon) [µM] | GI50 (KM12 colon) [µM] | GI50 (HOP-92 NSCLC) [µM] | GI50 (HCT-116 colon) [µM] | GI50 (HS 578T breast) [µM] | TGI (HS 578T breast) [µM] | GI50 (RPMI-8226 leukemia) [µM] | GI50 (IGROV1 ovarian) [µM] | GI50 (HL-60(TB) leukemia) [µM] | GI50 (SK-OV-3 ovarian) [µM]
1 | Cc1cccc(C)c1NC(=O)C(=O)C(C(=O)c1ccccc1-c1ccccc1)C1OC(=O)c2ccccc21 (centres undefined) | 88.9 | 37.9 | 87.6 | 48.9 | 40 | 27.8 | 60.1 | 64.1 | – | – | – | – | – | – | – | – | – | – | – | –
2 | Cc1cc(C)nc(NS(=O)(=O)c2ccc(NC(=O)c3cccc4c(Nc5ccc(S(N)(=O)=O)cc5)c5ccccc5nc34)cc2)n1 | 29.6 | > 62.5 | 28.4 | 47.3 | 61.1 | 21.7 | > 100 | 28.4 | > 100 | – | – | – | – | – | – | – | – | – | – | –
3 | O=C(/C=C/c1ccccc1Cl)NC1C=Nc2ccc([N+](=O)[O-])cc2NC1 (centres undefined) | > 100 | > 100 | > 100 | > 100 | – | > 100 | > 100 | > 100 | > 100 | – | – | – | – | – | – | – | – | – | – | –
4 | COc1cc2c3c(n(CCCOC(=O)C(F)(F)F)c(=O)c2cc1OC)-c1cc2c(cc1C3=O)OCO2 | – | > 100 | > 100 | 14.6 | 33.4 | – | 0.0158 | > 100 | > 100 | 0.519 | 0.103 | 0.0296 | 0.122 | < 0.0158 | 52.7 | > 100 | < 0.01 | 0.555 | – | –
5 | COc1ccc(O)c(C(=O)c2ccc(C(=O)N[C@H]3CCCNC[C@@H]3NC(=O)c3ccncc3)cc2)c1F | > 25 | > 25 | > 25 | > 16.5 | – | > 25 | > 25 | > 25 | > 25 | > 25 | > 25 | 3.1 | – | 12.3 | 0.0882 | 12.5 | 10.3 | 3.74 | > 23.5 | 5.57
6 | Cc1nc([N+](=O)[O-])cn1CC(=N)N | > 100 | > 100 | – | – | – | > 100 | > 100 | > 100 | > 100 | – | – | – | – | – | – | – | – | – | – | –
7 | CC(C)N(C(=O)C12C3C4C1(I)C1C2C3(I)C41C(=O)N(C(C)C)C(C)C)C(C)C (centres undefined) | > 61.3 | > 100 | > 100 | > 62.5 | > 100 | > 100 | > 72.5 | > 100 | > 59.8 | – | – | – | – | – | – | – | – | – | – | –
8 | COC(=O)[C@H]1C=C[C@@H](C)n2c(=O)c3cc4ccccc4cc3c(=O)n21 | > 100 | > 100 | > 100 | > 100 | > 100 | > 100 | > 100 | > 100 | > 100 | – | – | – | – | – | – | – | – | – | – | –
9 | O=P1(c2ccccc2)CCCCC1 | > 100 | > 100 | > 100 | > 100 | – | > 100 | > 100 | > 100 | > 100 | – | – | – | – | – | – | – | – | – | – | –
10 | CCn1c(=O)c2c(=O)c3c4c(oc3oc2c2ccccc21)C(=O)c1ccccc1C4=O | – | > 100 | > 100 | > 100 | – | > 100 | > 100 | > 100 | > 100 | > 100 | > 100 | > 100 | – | – | 19.2 | > 100 | 2.91 | > 50.1 | – | > 100
11 | COc1cc(C=O)c(-c2cc(OC)c(OC)cc2C=O)cc1OC | > 100 | > 100 | > 100 | > 100 | > 100 | > 100 | > 100 | > 100 | > 100 | – | – | – | – | – | – | – | – | – | – | –
12 | CCCN1CN(C(C(=O)N[C@@H]2C(=O)N3C2SC(C)(C)C3C(=O)O)c2ccc(O)cc2)CSC1=S (some centres undefined) | > 100 | > 100 | > 100 | > 100 | > 100 | > 100 | > 100 | > 100 | > 100 | – | – | – | – | – | – | – | – | – | – | –
13 | O=C(Nc1ccc(F)cc1)c1cc(S(=O)(=O)Nc2nc3ccccc3o2)c(SCc2ccccc2)cc1Cl | – | > 100 | 53.1 | 33.9 | 42.4 | 31.7 | 56.8 | 21.3 | 30.1 | 46.2 | 15.8 | 17.5 | 18.5 | 17.9 | 19.1 | 44.5 | 17.8 | 0.611 | – | 22.1
14 | CC1COC(C)(C)P(=O)(c2ccccc2)C1 (centres undefined) | > 100 | > 100 | > 100 | > 100 | – | > 100 | > 100 | > 100 | > 100 | – | – | – | – | – | – | – | – | – | – | –
15 | O=C1NC(=O)C(c2cccc([N+](=O)[O-])c2)=C1Nc1cc(Cl)c(O)c(Cl)c1 | > 25 | > 25 | > 25 | > 25 | – | > 25 | > 25 | > 25 | > 25 | > 25 | > 25 | > 25 | – | > 25 | 7.03 | > 25 | > 25 | > 25 | > 25 | 12
16 | CCCO/S(=N\S(=O)(=O)c1ccccc1)c1ccccc1[N+](=O)[O-] (centres undefined) | – | > 100 | > 100 | > 100 | – | > 100 | > 100 | > 100 | > 100 | – | – | – | – | – | – | – | – | – | – | –
17 | Cc1ccc(S(=O)(=O)c2ccc(N)cc2)cc1 | > 100 | – | > 100 | > 100 | – | > 100 | > 100 | > 100 | > 100 | – | – | – | – | – | – | – | – | – | – | –
18 | COc1cc2c(OC)cc1CSCc1sc(C)c(c1Br)CSC2 | > 100 | > 100 | > 100 | > 100 | > 100 | > 100 | > 100 | > 100 | > 100 | – | – | – | – | – | – | – | – | – | – | –
19 | COc1cc2c(c(OC)c1OC)-c1ncc3cc4c(cc3c1C2)OCO4 | > 100 | > 100 | 46.5 | 80.1 | – | 48.3 | > 100 | > 100 | > 100 | 29.7 | 10.8 | 18.6 | – | 18.8 | 14.7 | 49.6 | 17.8 | 12.8 | 26.3 | 21.9
